Source: patent publication US4758557A, “Cephalosporin derivatives and bactericides containing the same” (Meiji Seika Kaisha, Ltd., priority 1985, dated 1988)
In brackets after ≈: the same amount, converted by molar mass.

Tests used:
Assay in all cases: MIC in agar plate culture-dilution assay
Assay type in all cases: cell-based
[1] = tested on: Bacillus subtilis ATCC 6633; conditions: ATCC6633; Bacillus subtilis ATCC 6633; agar plate culture-dilution; read-out: MIC
Excerpt: (§1) The compounds of the formula (I) and salts thereof of the present invention are new, and have high and broad antibacterial activity capable of inhibiting the growth of pathogenic microorganisms of a broad range including gram-positive and gram-negative bacteria. In order to show the usability of the compounds of the formula (I), the antibacterial activity of some typical compounds of the formula (I) was actually measured, and the results are given in the following Table-1.
(§2) MIC in agar plate culture-dilution assay (Y/ml)

[2] = tested on: Citrobacter freundii GN-346; conditions: GN346; Citrobacter freundii GN-346; agar plate culture-dilution; read-out: MIC
Excerpt: as §1, §2

[3] = tested on: Enterobacter cloacae GN-7471; conditions: GN7471; Enterobacter cloacae GN-7471; agar plate culture-dilution; read-out: MIC
Excerpt: as §1, §2

[4] = tested on: Escherichia coli NIHJ JC-2; conditions: NIHJJC2
Excerpt: as §1, §2

[5] = tested on: Klebsiella pneumoniae GN-69; conditions: GN69; Klebsiella pneumoniae GN-69; agar plate culture-dilution; read-out: MIC
Excerpt: as §1, §2

[6] = tested on: Proteus rettgeri GN-624; conditions: Providencia rettgeri, GN624; Proteus rettgeri GN-624; agar plate culture-dilution; read-out: MIC
Excerpt: as §1, §2

[7] = tested on: Proteus vulgaris GN-76; conditions: GN76; Proteus vulgaris GN-76; agar plate culture-dilution; read-out: MIC
Excerpt: as §1, §2

[8] = tested on: Pseudomonas aeruginosa E-2; conditions: E2; Pseudomonas aeruginosa E-2; agar plate culture-dilution; read-out: MIC
Excerpt: as §1, §2

[9] = tested on: Pseudomonas aeruginosa IAM-1007; conditions: IAM1007; Pseudomonas aeruginosa IAM-1007; agar plate culture-dilution; read-out: MIC
Excerpt: as §1, §2

[10] = tested on: Pseudomonas aeruginosa M-0148; conditions: M0148; Pseudomonas aeruginosa M-0148; agar plate culture-dilution; read-out: MIC
Excerpt: as §1, §2

[11] = tested on: Pseudomonas maltophilia M-0627; conditions: Stenotrophomonas maltophilia, M0627; Pseudomonas maltophilia M-0627; agar plate culture-dilution; read-out: MIC
Excerpt: as §1, §2

[12] = tested on: Serratia marcescens No. 1; conditions: Serratia marcescens No. 1; agar plate culture-dilution; read-out: MIC
Excerpt: as §1, §2

[13] = tested on: Staphylococcus aureus 209P JC-1; conditions: Staphylococcus aureus 209P JC-1; agar plate culture-dilution; read-out: MIC
Excerpt: as §1, §2

[14] = tested on: Staphylococcus aureus Smith (1); conditions: Staphylococcus aureus Smith (1); agar plate culture-dilution; read-out: MIC
Excerpt: as §1, §2

MIC [1] [µg/mL] | MIC [2] [µg/mL] | MIC [3] [µg/mL] | MIC [4] [µg/mL] | MIC [5] [µg/mL] | MIC [6] [µg/mL] | MIC [7] [µg/mL] | MIC [8] [µg/mL] | MIC [9] [µg/mL] | MIC [10] [µg/mL] | MIC [11] [µg/mL] | MIC [12] [µg/mL] | MIC [13] [µg/mL] | MIC [14] [µg/mL] | SMILES
3.13 (≈ 4.29 µM) | 0.78 (≈ 1.07 µM) | 0.78 (≈ 1.07 µM) | < 0.025 | 0.1 (≈ 0.137 µM) | 0.1 (≈ 0.137 µM) | 0.2 (≈ 0.274 µM) | 0.1 (≈ 0.137 µM) | 0.05 (≈ 0.0685 µM) | 1.56 (≈ 2.14 µM) | 6.25 (≈ 8.56 µM) | 0.2 (≈ 0.274 µM) | 3.13 (≈ 4.29 µM) | 3.13 (≈ 4.29 µM) | Nc1nc(C(NC(=O)c2cc(=O)c(O)cn2O)C(=O)N[C@@H]2C(=O)N3C(C(=O)[O-])=C(CSc4cc[n+](CC(=O)O)c5c4CCC5)CS[C@H]23)cs1 (stereo partly drawn) [Example 17, (6R,7R)7-[(RS)2-(2-Aminothiazol-4-yl)-2-(1,5-dihydroxy-4-pyridone-2-carboxamido)acetamido]-3-(2,3-cyclopenteno-1-carboxylmethylpyridinium-4-yl)-thiomethyl-ceph-3-em-4-carboxylate]
3.13 (≈ 4.55 µM) | 0.39 (≈ 0.567 µM) | 1.56 (≈ 2.27 µM) | 0.1 (≈ 0.145 µM) | 0.05 (≈ 0.0727 µM) | 3.13 (≈ 4.55 µM) | 0.2 (≈ 0.291 µM) | 0.05 (≈ 0.0727 µM) | 0.2 (≈ 0.291 µM) | 0.2 (≈ 0.291 µM) | 3.13 (≈ 4.55 µM) | 0.78 (≈ 1.13 µM) | 3.13 (≈ 4.55 µM) | 3.13 (≈ 4.55 µM) | Nc1nc(C(NC(=O)c2cc(=O)c(O)cn2O)C(=O)N[C@@H]2C(=O)N3C(C(=O)O)=C(CSc4nc5ccccc5s4)CS[C@H]23)cs1 (stereo partly drawn) [Example 26, (6R,7R)7-[(RS)2-(2-Aminothiazol-4-yl)-2-(1,5-dihydroxy-4-pyridone-2-carboxamido)acetamido]-3-(benzothiazol-2-yl)thiomethyl-ceph-3-em-4-carboxylic acid]

Continued, molecule first:

SMILES | MIC [1] [µg/mL] | MIC [2] [µg/mL] | MIC [3] [µg/mL] | MIC [4] [µg/mL] | MIC [5] [µg/mL] | MIC [6] [µg/mL] | MIC [7] [µg/mL] | MIC [8] [µg/mL] | MIC [9] [µg/mL] | MIC [10] [µg/mL] | MIC [11] [µg/mL] | MIC [12] [µg/mL] | MIC [13] [µg/mL] | MIC [14] [µg/mL]
Nc1nc(C(NC(=O)c2cc(=O)c(O)cn2O)C(=O)N[C@@H]2C(=O)N3C(C(=O)O)=C(CSc4ccnc5c4CCC5)CS[C@H]23)cs1 (stereo partly drawn) [Example 15] | 3.13 (≈ 4.66 µM) | 0.2 (≈ 0.298 µM) | 0.78 (≈ 1.16 µM) | 0.1 (≈ 0.149 µM) | 0.05 (≈ 0.0744 µM) | 0.2 (≈ 0.298 µM) | 0.1 (≈ 0.149 µM) | < 0.025 | 0.2 (≈ 0.298 µM) | 0.2 (≈ 0.298 µM) | 0.78 (≈ 1.16 µM) | 0.39 (≈ 0.581 µM) | 1.56 (≈ 2.32 µM) | 3.13 (≈ 4.66 µM)
Nc1nc(C(NC(=O)c2cc(=O)c(O)cn2O)C(=O)N[C@@H]2C(=O)N3C(C(=O)O)=C(CSc4ccncc4)CS[C@H]23)cs1 (stereo partly drawn) [Example 16, (6R,7R)7-[(RS)2-(2-Aminothiazol-4-yl)-2-(1,5-dihydroxy-4-pyridone-2-carboxamido)acetamido]-3-(pyridine-4-yl)thiomethyl-ceph-3-em-4-carboxylic acid] | 6.25 (≈ 9.89 µM) | 0.78 (≈ 1.23 µM) | 1.56 (≈ 2.47 µM) | 0.1 (≈ 0.158 µM) | 0.2 (≈ 0.317 µM) | 1.56 (≈ 2.47 µM) | 0.39 (≈ 0.617 µM) | 0.1 (≈ 0.158 µM) | < 0.025 | 3.13 (≈ 4.96 µM) | 6.25 (≈ 9.89 µM) | 0.39 (≈ 0.617 µM) | 3.13 (≈ 4.96 µM) | 3.13 (≈ 4.96 µM)
Nc1nc(C(NC(=O)c2cc(=O)c(O)cn2O)C(=O)N[C@@H]2C(=O)N3C(C(=O)[O-])=C(CSc4cc[n+](CCO)cc4)CS[C@H]23)cs1 (stereo partly drawn) [Example 5, (6R,7R)7-[(RS)2-(2-Aminothiazol-4-yl)-2-(1,5-dihydroxy-4-pyridone-2-carboxamido)acetamido]-3-[1-(2-hydoroxyethyl)pyridinium-4-yl]thiomethyl-ceph-3-em-4-carboxylate] | 3.13 (≈ 4.63 µM) | 0.78 (≈ 1.15 µM) | 1.56 (≈ 2.31 µM) | 0.05 (≈ 0.074 µM) | 0.05 (≈ 0.074 µM) | 0.1 (≈ 0.148 µM) | 0.39 (≈ 0.577 µM) | 0.05 (≈ 0.074 µM) | 0.1 (≈ 0.148 µM) | 0.78 (≈ 1.15 µM) |  | 0.2 (≈ 0.296 µM) | 1.56 (≈ 2.31 µM) | 3.13 (≈ 4.63 µM)
